Our source for the TGI values is PubChem BioAssay (NCI).

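Cultured in 96-well plates, cells were exposed to test compound for 48 hours across five concentrations. At the TGI there is no net growth.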

Among the test systems are SK-MEL-2 melanoma; T-47D breast; UACC-257 melanoma; SF-539 CNS; OVCAR-4 ovarian; HOP-92 NSCLC; SN12C renal; U251 CNS; BT-549 breast; HCT-116 colon.
Holding throughout (experiment): NCI anticancer screen, dose series, 48 h

Take `COc1cc(Nc2nc(NS(=O)(=O)c3cc(C)c(Cl)cc3S)n[nH]2)cc(OC)c1OC`: the TGI in the assay on SK-MEL-2 melanoma, with T-47D breast, with UACC-257 melanoma, in the assay with SF-539 CNS, in the assay on OVCAR-4 ovarian and in the assay on HOP-92 NSCLC was greater than 100 µM each time. The TGI in the assay with SN12C renal, in the assay with U251 CNS, in the assay on BT-549 breast and with HCT-116 colon was greater than 100 µM in each case.

`CC(=O)Nc1ccc2c3c(cc(O)c2c1)N(C(=O)CCCCCCC(=O)Nc1ccc2c4c(cc(O)c2c1)N(C(=O)OC(C)(C)C)CC4CCl)CC3CCl` (stereo not given): the TGI is 0.0593 µM in the assay with SK-MEL-2 melanoma; 2.3 µM in the assay on T-47D breast; 0.439 µM in the assay with UACC-257 melanoma; 0.396 µM in the assay on SF-539 CNS; 3.98 µM in the assay with OVCAR-4 ovarian; 4.11 µM with HOP-92 NSCLC. Further, the TGI in the assay with SN12C renal is 2.59 µM; in the assay on U251 CNS, 11 µM; in the assay on BT-549 breast, 0.979 µM; in the assay on HCT-116 colon it was 11.9 µM.

For the molecule `O=c1oc2cc(O)ccc2c(O)c1C(c1ccc(/C=C/c2ccccc2)cc1)c1c(O)c2ccc(O)cc2oc1=O`, the TGI with SK-MEL-2 melanoma, in the assay with T-47D breast, with UACC-257 melanoma, in the assay on SF-539 CNS, in the assay with OVCAR-4 ovarian and in the assay on HOP-92 NSCLC was greater than 100 µM each time. In addition, the TGI in the assay with SN12C renal, in the assay with U251 CNS, in the assay on BT-549 breast and in the assay on HCT-116 colon was greater than 100 µM each time.

Turning to `COc1ccccc1Nc1nc(N)nc(N)c1N`, the TGI in the assay with SK-MEL-2 melanoma, in the assay on T-47D breast, in the assay with UACC-257 melanoma, in the assay on SF-539 CNS, in the assay on OVCAR-4 ovarian and with HOP-92 NSCLC was greater than 100 µM in each case. Further, the TGI with SN12C renal is 32.7 µM; in the assay with U251 CNS it was greater than 100 µM; in the assay on BT-549 breast it was greater than 100 µM; with HCT-116 colon, 39.8 µM.

On to `NS(=O)(=O)c1ccc(NCc2cccc3c(=O)c4ccc(Cl)cc4oc23)cc1`, for which the TGI in the assay with SK-MEL-2 melanoma was greater than 100 µM; in the assay with T-47D breast it was greater than 100 µM; in the assay on UACC-257 melanoma it was greater than 100 µM; with SF-539 CNS, greater than 64.6 µM; in the assay with OVCAR-4 ovarian it was greater than 100 µM; with HOP-92 NSCLC, 57 µM. In addition, the TGI in the assay on SN12C renal was greater than 100 µM; with U251 CNS, greater than 100 µM; in the assay on BT-549 breast, greater than 96.7 µM; in the assay on HCT-116 colon, greater than 100 µM.

As to `CC(=O)OCCn1c(Cc2ccc(Cl)cc2)nn(C(C)=O)c1=O`, the TGI in the assay on SK-MEL-2 melanoma, in the assay with T-47D breast, in the assay on UACC-257 melanoma, in the assay on SF-539 CNS, with OVCAR-4 ovarian and with HOP-92 NSCLC was greater than 100 µM in each case. For the same molecule, the TGI with SN12C renal, in the assay on U251 CNS, in the assay with BT-549 breast and with HCT-116 colon was greater than 100 µM throughout.

For the molecule `Cc1c(CNc2ccc(Cl)c(Cl)c2Cl)cnc2nc(N)nc(N)c12`, the TGI was greater than 90 µM in the assay on SK-MEL-2 melanoma; 24.9 µM in the assay on T-47D breast; greater than 55.4 µM in the assay on UACC-257 melanoma; 12.2 µM in the assay on SF-539 CNS; 31.1 µM in the assay with OVCAR-4 ovarian; greater than 62.8 µM in the assay on HOP-92 NSCLC. Moreover, the TGI with SN12C renal is greater than 100 µM; in the assay with U251 CNS, greater than 46.5 µM; with BT-549 breast it was 50.8 µM; in the assay with HCT-116 colon it was 1.55 µM.

Consider `CCOP(=O)(OCC)/C(F)=C/c1ccc(F)cc1`, for which the TGI in the assay on SK-MEL-2 melanoma, with T-47D breast, in the assay with UACC-257 melanoma, in the assay on SF-539 CNS, in the assay with OVCAR-4 ovarian and in the assay on HOP-92 NSCLC was greater than 100 µM each time. Besides, the TGI with SN12C renal, in the assay on U251 CNS, in the assay on BT-549 breast and in the assay with HCT-116 colon was greater than 100 µM in each case.

As to `Cc1c(S(=O)(=O)/N=C(\NO)Nc2ccc(Cl)cc2)sc2ccc(Cl)cc12`, the TGI in the assay on SK-MEL-2 melanoma was found to be 34.4 µM; with T-47D breast it was 89.9 µM; with UACC-257 melanoma it was 33.3 µM; in the assay with SF-539 CNS, 42.1 µM; in the assay with OVCAR-4 ovarian, 38.3 µM; in the assay on HOP-92 NSCLC it was 28.8 µM. Moreover, the TGI with SN12C renal stood at 35.5 µM; in the assay on U251 CNS, 31.5 µM; with BT-549 breast, 31.7 µM; in the assay on HCT-116 colon, 27.4 µM.

Take `COc1ccc(Cc2nc3cc(C(F)(F)F)ccc3n2C[C@@H]2CCCN3CCCCC23)cc1` (stereo not given in full): the TGI is 30.1 µM in the assay on SK-MEL-2 melanoma; 22.9 µM with T-47D breast; 6.77 µM with UACC-257 melanoma; 28.1 µM in the assay with SF-539 CNS; 25.1 µM with OVCAR-4 ovarian; 20.7 µM in the assay on HOP-92 NSCLC. The TGI with SN12C renal worked out at 22.3 µM; with U251 CNS it was 27.7 µM; with BT-549 breast, 28.5 µM; in the assay on HCT-116 colon, 20.4 µM.
